Data as given in US20050271637A1, “BMP-2 estrogen responsive element and methods of using the same” (priority 2002, published 2005).
“Also recorded” adds a separate entry of the source. Values belong to the compound of their own block, whether it stands above or below them.

Experiments:
mouse BMP-2 mRNA [1] = assay: Semi-quantitative RT-PCR of BMP-2 mRNA in MSCs from OVX mice; assay type: cell-based; conditions: for BMP-2 mRNA expression, effect of the substance alone: E2 100 nM, ICI 10 μM, tamoxifen 1.0 μM, raloxifene 100 nM
Procedure: (§1) Two months old Swiss-Webster female mice (ICR) were OVX in accordance with mandated standards of humane care, and the animals were maintained in accordance with the NIH Guide for the Care and Use of Laboratory Animals. After 5 months post-surgery, bone marrow was isolated from femurs and tibias, and the MSCs were cultured as described previously (Gazit et al. 1999 and Zhou et al. 2001). The bone marrow cells were maintained in DMEM (Phenol red free, 1.0 g/L glucose, Biological Industries, Israel) with 15% FBS (Charcoal stripped, heat-inactivated), 100 units/ml penicillin, 100 μg/ml streptomycin, and 2 mM glutamine. At day 4, the cultures were supplemented with 50 μg/ml ascorbic acid, 10 mM β-glycerophosphate, and 10 nM dexamethasone. From day 10, the cells were cultured in DMEM with 2% charcoal stripped (CS)-FBS without osteogenic supplements. […] RNA then was isolated at day 12. […] Mouse C3H10T1/2 cells were cultivated in DMEM (Sigma and Biological Industries) with 10% FBS, 100 units/ml penicillin, 100 μg/ml streptomycin, and 2 mM glutamine.
RNA was isolated using TRizol Reagent (Life Technologies, USA), according to the manufacturer's protocol. Semi-quantitative RT-PCR was performed as described previously (Zhou et al. 2001). Mouse BMP-2 (505 bp) (Zhou et al. 2001), internal control RPL19 (190 bp) (Orly et al. 1994) and c-myc (550 bp) (Goswami et al. 1997) primers were described previously. The PCR conditions used for mouse BMP-2 RT-PCR were 30 cycles of 94 C for 1 min, 55 C for 1 min and 72 for 2 min in an MJ MiniCycler (MJ Research, USA). RT-PCR products of mouse BMP-2 were cloned into the pGEM-T Easy vector (A1360, Promega), and the pGEM-T-mouse BMP-2 vectors were sequenced by a T7 sequence sequencing kit (US70770, USB, Cleveland, USA) according to the manufacturer's protocols. DNA sequence analysis confirmed that mouse BMP-2 had been amplified.
All experiments were performed three to five times independently. Data re presented as the mean values±the standard error of the mean. The semi-quantitative RT-PCR and real-time RT-PCR were performed 3 times in independent experiments using total RNA that was isolated from MSCs derived from 3-6 animals each time. Quantitative data were analyzed using either the non-parameteric Mann-Whitney test or the ANOVA test.

human ERβ = human ERβ (Homo sapiens, UniProt Q92731); assay: Mouse BMP-2 promoter-luciferase assay in C3H10T1/2 cells co-transfected with human ERβ; conditions: 24 hr; E2 different doses or 10 nM, raloxifene 100 nM, tamoxifen 1.0 μM, genistein 100 nM
c-myc mRNA = assay: Semi-quantitative RT-PCR of c-myc mRNA in MSCs from OVX mice; assay type: cell-based, mouse; conditions: 5.0 μM cycloheximide
Procedure: as §1
(§2) RNA was isolated using TRizol Reagent (Life Technologies, USA), according to the manufacturer's protocol. Semi-quantitative RT-PCR was performed as described previously (Zhou et al. 2001). […]

mouse BMP-2 mRNA [2] = assay: Real-time RT-PCR of BMP-2 mRNA in bone marrow MSCs from OVX mice; assay type: cell-based; conditions: 100 nM E2, 24 hr
Procedure: Two months old Swiss-Webster female mice (ICR) were OVX in accordance with mandated standards of humane care, and the animals were maintained in accordance with the NIH Guide for the Care and Use of Laboratory Animals. After 5 months post-surgery, bone marrow was isolated from femurs and tibias, and the MSCs were cultured as described previously (Gazit et al. 1999 and Zhou et al. 2001). The bone marrow cells were maintained in DMEM (Phenol red free, 1.0 g/L glucose, Biological Industries, Israel) with 15% FBS (Charcoal stripped, heat-inactivated), 100 units/ml penicillin, 100 μg/ml streptomycin, and 2 mM glutamine. […]
as §2
Real-Time PCR was performed using a Roche LightCycler according to the manufacturer's protocol (Roche Molecular Biochemicals, USA). […] Fluoresence was measured at 82° C. for 5 s. To quantify the copy number of the mouse BMP-2 mRNA in MSCs, pGEM-T-mouse BMP-2 plasmids ([…]) were used in standard curve.
All experiments were performed three to five times independently. […] The semi-quantitative RT-PCR and real-time RT-PCR were performed 3 times in independent experiments using total RNA that was isolated from MSCs derived from 3-6 animals each time. […]

Chain of human ERβ (Q92731 46-530 limits assumed): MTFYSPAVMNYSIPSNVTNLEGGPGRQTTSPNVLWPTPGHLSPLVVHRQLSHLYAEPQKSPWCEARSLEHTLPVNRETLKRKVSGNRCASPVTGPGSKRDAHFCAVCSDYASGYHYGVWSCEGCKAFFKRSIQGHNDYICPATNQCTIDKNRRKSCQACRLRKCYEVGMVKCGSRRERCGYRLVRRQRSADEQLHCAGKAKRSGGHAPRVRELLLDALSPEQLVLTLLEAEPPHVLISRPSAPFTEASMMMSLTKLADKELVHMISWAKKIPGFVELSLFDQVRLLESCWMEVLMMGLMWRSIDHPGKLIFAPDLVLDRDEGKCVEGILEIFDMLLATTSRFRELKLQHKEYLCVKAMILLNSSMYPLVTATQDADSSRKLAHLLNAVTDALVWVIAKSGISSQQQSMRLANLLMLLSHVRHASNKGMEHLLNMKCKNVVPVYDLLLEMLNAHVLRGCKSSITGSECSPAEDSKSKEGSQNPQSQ

full-length mouse BMP-2 promoter (−2712) activity via ERβ (human ERβ): not via ERβ
SMILES: O=C(c1ccc(OCCN2CCCCC2)cc1)c1c(-c2ccc(O)cc2)sc2cc(O)ccc12 [raloxifene]
BMP-2 mRNA expression, effect of the substance alone (mouse BMP-2 mRNA [1]; 24 hr): failed to activate

SMILES: C[C@@H]1C[C@@H]([C@H](O)CC2CC(=O)NC(=O)C2)C(=O)[C@@H](C)C1 [cycloheximide]
effect on up-regulation of BMP-2 mRNA by E2 (mouse BMP-2 mRNA [1]; 5.0 μM cycloheximide added 45 min before 100 nM E2, RNA 4 hr after E2): did not block
c-myc mRNA levels (c-myc mRNA): super-induction; also recorded: superinduction

SMILES: CC/C(=C(\c1ccccc1)c1ccc(OCCN(C)C)cc1)c1ccccc1 [tamoxifen]
BMP-2 mRNA expression, effect of the substance alone (mouse BMP-2 mRNA [1]; 24 hr): failed to activate

SMILES: C[C@]12CC[C@@H]3c4ccc(O)cc4CC[C@H]3[C@@H]1CC[C@@H]2O [E2, estradiol]
increase of mouse BMP-2 mRNA levels (mouse BMP-2 mRNA [2]; versus untreated): 2.4 fold
mouse BMP-2 mRNA levels (mouse BMP-2 mRNA [2]; in 2 μg of total RNA, untreated 570±81 copies, p<0.05, ANOVA): 1337±177 copies

SMILES: C[C@]12CC[C@@H]3c4ccc(O)cc4C[C@@H](CCCCCCCCC[S+]([O-])CCCC(F)(F)C(F)(F)F)[C@H]3[C@@H]1CC[C@@H]2O (stereo partly drawn) [ICI-182,780]
BMP-2 mRNA expression, effect of the substance alone (mouse BMP-2 mRNA [1]; 24 hr, listed as ICI): had no effect; also recorded: failed to activate
effect on up-regulation of BMP-2 mRNA expression by E2 (mouse BMP-2 mRNA [1]; ICI 10 μM with E2 100 nM, 24 hr, listed as ICI): blocked; also recorded: inhibited
